US8871753B2, “Macrocyclic compounds and their use as kinase inhibitors” (Incyte Corporation, priority 2008, dated 2014)
Structures can show the parent of a compound that is named as a salt.

Experiments:
Assay type in all cases: biochemical
[1] = target: T1, human JAK1 (a.a. 837-1142) (Homo sapiens, UniProt P23458); experiment: In vitro JAK kinase assay (HTRF, phosphorylation of a biotinylated peptide), JAK1; settings: Table D1; read-out: JAK1 IC50
T1 construct: human JAK1 (a.a. 837-1142); His tag (N); made in house; host or cells: insect cells (baculovirus)
Method in brief: (§1)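 Kinase reactions ran at room temperature for 1 h with ATP matched per isoform (JAK1 90 μM, JAK2 30 μM, JAK3 3 μM). After an EDTA stop, the phosphorylated biotin-peptide was read by HTRF using Eu-Py20 and SA-APC after 40 min binding.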

[2] = target: T2, human JAK2 (a.a. 828-1132) (Homo sapiens, UniProt O60674); experiment: In vitro JAK kinase assay (HTRF, phosphorylation of a biotinylated peptide), JAK2; settings: Table D1
T2 construct: JAK2 (a.a. 828-1132); His tag (N); made in house; host or cells: insect cells (baculovirus)
Method in brief: as §1

[3] = target: T3, human JAK3 (a.a. 781-1124) (Homo sapiens, UniProt P52333); experiment: In vitro JAK kinase assay (HTRF, phosphorylation of a biotinylated peptide), JAK3; settings: Table D1
T3 construct: JAK3 (a.a. 781-1124); His tag (N); made in house; host or cells: insect cells (baculovirus)
Method in brief: as §1

[4] = target: TYK2 (Homo sapiens, UniProt P29597); experiment: TYK2 kinase inhibition (Table A1); settings: Table D1
Sequence of TYK2 (P29597 whole entry): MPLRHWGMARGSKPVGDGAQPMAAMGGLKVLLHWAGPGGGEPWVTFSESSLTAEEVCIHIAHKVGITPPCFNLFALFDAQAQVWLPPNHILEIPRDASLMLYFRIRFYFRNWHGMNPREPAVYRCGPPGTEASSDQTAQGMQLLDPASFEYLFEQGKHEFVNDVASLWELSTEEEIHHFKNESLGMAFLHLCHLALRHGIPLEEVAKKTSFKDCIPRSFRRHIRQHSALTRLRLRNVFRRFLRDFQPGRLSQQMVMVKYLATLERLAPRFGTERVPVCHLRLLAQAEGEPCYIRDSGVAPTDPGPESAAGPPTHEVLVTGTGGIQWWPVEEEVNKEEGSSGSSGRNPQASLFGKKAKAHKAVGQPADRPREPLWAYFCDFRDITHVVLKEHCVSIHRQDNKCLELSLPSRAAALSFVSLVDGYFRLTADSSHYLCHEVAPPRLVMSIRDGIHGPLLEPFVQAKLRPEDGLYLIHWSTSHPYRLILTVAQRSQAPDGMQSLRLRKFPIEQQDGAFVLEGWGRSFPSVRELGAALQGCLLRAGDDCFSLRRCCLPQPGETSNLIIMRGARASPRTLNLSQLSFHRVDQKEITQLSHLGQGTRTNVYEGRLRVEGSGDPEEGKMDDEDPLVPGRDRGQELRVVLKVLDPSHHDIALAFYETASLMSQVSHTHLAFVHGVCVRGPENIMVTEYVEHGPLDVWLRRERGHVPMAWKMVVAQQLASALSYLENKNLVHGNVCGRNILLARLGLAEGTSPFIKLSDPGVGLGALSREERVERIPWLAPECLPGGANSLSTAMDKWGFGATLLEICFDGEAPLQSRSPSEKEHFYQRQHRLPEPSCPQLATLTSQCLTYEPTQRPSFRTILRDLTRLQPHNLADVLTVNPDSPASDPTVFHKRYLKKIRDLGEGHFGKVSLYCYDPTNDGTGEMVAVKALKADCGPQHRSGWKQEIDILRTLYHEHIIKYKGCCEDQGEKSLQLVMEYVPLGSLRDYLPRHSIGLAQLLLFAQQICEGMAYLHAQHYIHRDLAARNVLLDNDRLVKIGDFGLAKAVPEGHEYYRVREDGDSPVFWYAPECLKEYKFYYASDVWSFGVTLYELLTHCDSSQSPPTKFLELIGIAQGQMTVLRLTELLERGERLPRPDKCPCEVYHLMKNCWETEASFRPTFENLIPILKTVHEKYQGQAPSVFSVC

T1 sequence (P23458 849-1154): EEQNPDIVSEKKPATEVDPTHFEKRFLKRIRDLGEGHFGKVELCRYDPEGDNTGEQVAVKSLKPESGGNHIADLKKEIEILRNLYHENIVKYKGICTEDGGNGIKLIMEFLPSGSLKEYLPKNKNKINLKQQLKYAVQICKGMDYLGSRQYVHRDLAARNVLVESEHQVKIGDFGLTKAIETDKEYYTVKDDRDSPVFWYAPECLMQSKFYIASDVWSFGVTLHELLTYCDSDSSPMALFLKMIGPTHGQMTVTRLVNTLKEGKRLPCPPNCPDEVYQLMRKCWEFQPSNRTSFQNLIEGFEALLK
T2 sequence (O60674 828-1132): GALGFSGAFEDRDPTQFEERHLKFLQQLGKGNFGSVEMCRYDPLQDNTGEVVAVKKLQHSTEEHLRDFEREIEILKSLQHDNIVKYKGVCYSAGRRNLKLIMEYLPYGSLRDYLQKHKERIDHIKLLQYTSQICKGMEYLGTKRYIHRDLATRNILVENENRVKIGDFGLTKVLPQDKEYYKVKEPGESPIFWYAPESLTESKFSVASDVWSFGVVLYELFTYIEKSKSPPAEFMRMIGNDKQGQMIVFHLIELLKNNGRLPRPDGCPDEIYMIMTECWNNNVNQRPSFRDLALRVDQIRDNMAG
T3 sequence (P52333 781-1124): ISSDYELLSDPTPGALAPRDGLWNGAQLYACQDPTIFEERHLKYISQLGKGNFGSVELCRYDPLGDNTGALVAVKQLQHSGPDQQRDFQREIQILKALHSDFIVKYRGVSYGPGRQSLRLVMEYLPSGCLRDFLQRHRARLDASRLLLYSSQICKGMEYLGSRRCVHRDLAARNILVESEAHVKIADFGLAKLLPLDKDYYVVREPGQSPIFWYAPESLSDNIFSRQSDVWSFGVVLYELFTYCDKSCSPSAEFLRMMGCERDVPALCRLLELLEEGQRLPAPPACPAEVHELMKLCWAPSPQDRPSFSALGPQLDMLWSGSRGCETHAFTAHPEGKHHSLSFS

SMILES	IC50 [1]	IC50 [2]	IC50 [3]	IC50 [4]
COC(=O)Cn1c(=O)oc2c3cc(cc21)Nc1nc(ncc1Cl)Nc1cccc(c1)CC3 [Example D183, Methyl [4-chloro-19-oxo-18-oxa-2,6,8,20,25-pentaazapentacyclo[14.6.1.1(3,7).1(9,13).0(17,21)]pentacosa-1(23),3(25),4,6,9(24),10,12,16,21-nonaen-20-yl]acetate trifluoroacetate]	12 nM	22 nM	64 nM	166 nM
O=c1[nH]c2cc3cc(c2o1)CCc1cccc(c1)Nc1ncc(Cl)c(n1)N3 [Example D184, 4-Chloro-18-oxa-2,6,8,20,25-pentaazapentacyclo[14.6.1.1(3,7).1(9,13).0(17,21)]pentacosa-1(23),3(25),4,6,9(24),10,12,16,21-nonaen-19-one]	0.9 nM	2.8 nM	21 nM	1.8 nM
O=C(Cn1c(=O)oc2c3cc(cc21)Nc1nc(ncc1Cl)Nc1cccc(c1)CC3)Nc1ccccc1 [Example D185, 2-[4-Chloro-19-oxo-18-oxa-2,6,8,20,25-pentaazapentacyclo[14.6.1.1(3,7).1(9,13).0(17,21)]pentacosa-1(23),3(25),4,6,9(24),10,12,16,21-nonaen-20-yl]-N-phenylacetamide trifluoroacetate]	108 nM	49 nM	196 nM	742 nM
O=C(Cn1c(=O)oc2c3cc(cc21)Nc1nc(ncc1Cl)Nc1cccc(c1)CC3)NCc1ccccc1 [Example D186, N-Benzyl-2-[4-chloro-19-oxo-18-oxa-2,6,8,20,25-pentaazapentacyclo[14.6.1.1(3,7).1(9,13).0(17,21)]pentacosa-1(23),3(25),4,6,9(24),10,12,16,21-nonaen-20-yl]acetamide trifluoroacetate]	53 nM	40 nM	162 nM	792 nM
O=C(Cn1c(=O)oc2c3cc(cc21)Nc1nc(ncc1Cl)Nc1cccc(c1)CC3)N1CCOCC1 [Example D187, 4-Chloro-20-(2-morpholin-4-yl-2-oxoethyl)-18-oxa-2,6,8,20,25-pentaazapentacyclo[14.6.1.1(3,7).1(9,13).0(17,21)]pentacosa-1(23),3(25),4,6,9(24),10,12,16,21-nonaen-19-one trifluoroacetate]	200 nM	185 nM	130 nM	> 1000 nM
O=C(Cn1c(=O)oc2c3cc(cc21)Nc1nc(ncc1Cl)Nc1cccc(c1)CC3)N1CCN(c2ccccc2)CC1 [Example D188, 4-Chloro-20-[2-oxo-2-(4-phenylpiperazin-1-yl)ethyl]-18-oxa-2,6,8,20,25-pentaazapentacyclo[14.6.1.1(3,7).1(9,13).0(17,21)]pentacosa-1(23),3(25),4,6,9(24),10,12,16,21-nonaen-19-one bis(trifluoroacetate)]	32 nM	32 nM	79 nM	> 1000 nM
Clc1cnc2nc1Nc1cccc(c1)OCCc1cc(CN3CCOCC3)cc(c1)N2 [Example D189, 6-Chloro-19-(morpholin-4-ylmethyl)-14-oxa-2,4,8,23-tetraazatetracyclo[15.3.1.1(3,7).1(9,13)]tricosa-1(21),3(23),4,6,9(22),10,12,17,19-nonaene bis(trifluoroacetate)]	7.6 nM	0.5 nM	7.3 nM	5.2 nM
CN1CCN(Cc2cc3cc(c2)Nc2ncc(Cl)c(n2)Nc2cccc(c2)OCC3)CC1 [Example D190, 6-Chloro-19-[(4-methylpiperazin-1-yl)methyl]-14-oxa-2,4,8,23-tetraazatetracyclo[15.3.1.1(3,7).1(9,13)]tricosa-1(21),3(23),4,6,9(22),10,12,17,19-nonaene tris(trifluoroacetate)]	24 nM	0.9 nM	3 nM	3.5 nM
Clc1cnc2nc1Nc1cccc(c1)OCCc1cc(CN3CCNCC3)cc(c1)N2 [Example D191, 6-Chloro-19-(piperazin-1-ylmethyl)-14-oxa-2,4,8,23-tetraazatetracyclo[15.3.1.1(3,7).1(9,13)]tricosa-1(21),3(23),4,6,9(22),10,12,17,19-nonaene tris(trifluoroacetate)]	34 nM	1.4 nM	5.7 nM	8.9 nM
O=C(C[C@@H]1CCCNC1)Nc1ccc2cc1CCc1cccc(c1)Nc1ncc(Cl)c(n1)N2 [Example D192, N-[6-Chloro-2,4,8,22-tetraazatetracyclo[14.3.1.1(3,7).1(9,13)]docosa-1(20),3(22),4,6,9(21),10,12,16,18-nonaen-12-yl]-2-[(3S)-piperidin-3-yl]acetamidebis(trifluoroacetate)]	4.7 nM	9.8 nM	104 nM	13 nM
O=C(C[C@H]1CCCNC1)Nc1ccc2cc1CCc1cccc(c1)Nc1ncc(Cl)c(n1)N2 [Example D193, N-[6-Chloro-2,4,8,22-tetraazatetracyclo[14.3.1.1(3,7).1(9,13)]docosa-1(20),3(22),4,6,9(21),10,12,16,18-nonaen-12-yl]-2-[(3R)-piperidin-3-yl]acetamidebis(trifluoroacetate)]	1.4 nM	8.3 nM	32 nM	6.1 nM
O=C(C[C@@H]1CCCNC1)Nc1ccc2cc1CCc1cncc(c1)Nc1ncc(Cl)c(n1)N2 [Example D194, N-[6-Chloro-2,4,8,18,22-pentaazatetracyclo[14.3.1.1(3,7).1(9,13)]docosa-1(20),3(22),4,6,9(21),10,12,16,18-nonaen-12-yl]-2-[(3S)-piperidin-3-yl]acetamidetris(trifluoroacetate)]	5.8 nM	46 nM	144 nM	23 nM
O=C(C[C@H]1CCCNC1)Nc1ccc2cc1CCc1cncc(c1)Nc1ncc(Cl)c(n1)N2 [Example D195, N-[6-Chloro-2,4,8,18,22-pentaazatetracyclo[14.3.1.1(3,7).1(9,13)]docosa-1(20),3(22),4,6,9(21),10,12,16,18-nonaen-12-yl]-2-[(3R)-piperidin-3-yl]acetamidetris(trifluoroacetate)]	18 nM	54 nM	355 nM	31 nM
O=C(C[C@@H]1CCCN(C(=O)Nc2ccccc2)C1)Nc1ccc2cc1CCc1cccc(c1)Nc1ncc(Cl)c(n1)N2 [Example D196, (3S)-3-(2-{[6-Chloro-2,4,8,22-tetraazatetracyclo[14.3.1.1(3,7).1(9,13)]docosa-1(20),3(22),4,6,9(21),10,12,16,18-nonaen-12-yl]amino}-2-oxoethyl)-N-phenylpiperidine-1-carboxamide trifluoroacetate]	11 nM	6.4 nM	57 nM	31 nM
O=C(C[C@H]1CCCN(C(=O)Nc2ccccc2)C1)Nc1ccc2cc1CCc1cccc(c1)Nc1ncc(Cl)c(n1)N2 [Example D197, (3R)-3-(2-{[6-Chloro-2,4,8,22-tetraazatetracyclo[14.3.1.1(3,7).1(9,13)]docosa-1(20),3(22),4,6,9(21),10,12,16,18-nonaen-12-yl]amino}-2-oxoethyl)-N-phenylpiperidine-1-carboxamide trifluoroacetate]	16 nM	9 nM	44 nM	34 nM
O=C(C[C@@H]1CCCN(C(=O)Nc2ccccc2)C1)Nc1ccc2cc1CCc1cncc(c1)Nc1ncc(Cl)c(n1)N2 [Example D198, (3S)-3-(2-{[6-Chloro-2,4,8,18,22-pentaazatetracyclo[14.3.1.1(3,7).1(9,13)]docosa-1(20),3(22),4,6,9(21),10,12,16,18-nonaen-12-yl]amino}-2-oxoethyl)-N-phenylpiperidine-1-carboxamide bis(trifluoroacetate)]	5.7 nM	10 nM	69 nM	27 nM
O=C(C[C@H]1CCCN(C(=O)Nc2ccccc2)C1)Nc1ccc2cc1CCc1cncc(c1)Nc1ncc(Cl)c(n1)N2 [Example D199, (3R)-3-(2-{[6-Chloro-2,4,8,18,22-pentaazatetracyclo[14.3.1.1(3,7).1(9,13)]docosa-1(20),3(22),4,6,9(21),10,12,16,18-nonaen-12-yl]amino}-2-oxoethyl)-N-phenylpiperidine-1-carboxamide bis(trifluoroacetate)]	5.7 nM	8 nM	65 nM	21 nM
CC(=O)N1CCC[C@@H](CC(=O)Nc2ccc3cc2CCc2cccc(c2)Nc2ncc(Cl)c(n2)N3)C1 [Example D200, 2-[(3S)-1-Acetylpiperidin-3-yl]-N-[6-chloro-2,4,8,22-tetraazatetracyclo[14.3.1.1(3,7).1(9,13)]docosa-1(20),3(22),4,6,9(21),10,12,16,18-nonaen-12-yl]acetamide trifluoroacetate]	8.1 nM	9.3 nM	34 nM	12 nM
CC(=O)N1CCC[C@H](CC(=O)Nc2ccc3cc2CCc2cccc(c2)Nc2ncc(Cl)c(n2)N3)C1 [Example D201, 2-[(3R)-1-Acetylpiperidin-3-yl]-N-[6-chloro-2,4,8,22-tetraazatetracyclo[14.3.1.1(3,7).1(9,13)]docosa-1(20),3(22),4,6,9(21),10,12,16,18-nonaen-12-yl]acetamide trifluoroacetate]	19 nM	10 nM	29 nM	35 nM
